Several values for one entry are separate records, joined by “and”; a condition that tells them apart may be missing. Equal entries are not always repeated. Where two headings read alike, the source gives them in different places.
Columns and labels:
[1] = molecular target: AChE in SH-SY5Y spheroids (Homo sapiens, UniProt P22303); assay: cell-based
recombinant human AChE [2] = molecular target: T1, recombinant human AChE (Homo sapiens, UniProt P22303); assay: biochemical
recombinant human AChE [3] = molecular target: T1, recombinant human AChE; assay: biochemical; remark: listed apart in the source
recombinant human AChE [4] = molecular target: T1, recombinant human AChE; assay: biochemical; assay type: biochemical; details: for AC50: AC50 (uM)
AChE in SH-SY5Y cells = AChE in SH-SY5Y cells (Homo sapiens, UniProt P22303); assay: cell-based
Chain of AChE in SH-SY5Y cells (P22303 32-614): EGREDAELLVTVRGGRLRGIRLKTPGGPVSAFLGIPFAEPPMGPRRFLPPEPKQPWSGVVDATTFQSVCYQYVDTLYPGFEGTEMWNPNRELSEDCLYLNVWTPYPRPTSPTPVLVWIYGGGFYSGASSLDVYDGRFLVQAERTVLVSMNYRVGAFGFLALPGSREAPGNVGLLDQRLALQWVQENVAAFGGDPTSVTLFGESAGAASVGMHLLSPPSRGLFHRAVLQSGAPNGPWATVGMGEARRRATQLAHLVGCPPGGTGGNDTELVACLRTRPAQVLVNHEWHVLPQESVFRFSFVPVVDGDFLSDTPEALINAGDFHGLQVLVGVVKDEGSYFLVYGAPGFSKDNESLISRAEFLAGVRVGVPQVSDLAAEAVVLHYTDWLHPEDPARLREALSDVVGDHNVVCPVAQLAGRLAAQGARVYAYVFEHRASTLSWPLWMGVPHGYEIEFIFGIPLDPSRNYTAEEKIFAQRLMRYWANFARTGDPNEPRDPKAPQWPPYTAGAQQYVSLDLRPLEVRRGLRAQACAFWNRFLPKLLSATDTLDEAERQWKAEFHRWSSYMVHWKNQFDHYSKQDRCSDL

[5] = molecular target: AChE in neural stem cell spheroids (Homo sapiens, UniProt P22303); assay: cell-based
Chain of AChE in neural stem cell spheroids (P22303 32-614): as above

recombinant human AChE [6] = molecular target: T1, recombinant human AChE
[7] = molecular target: AChE in neural stem cells (Homo sapiens, UniProt P22303); assay: cell-based
Chain of AChE in neural stem cells (P22303 32-614): as above

recombinant human AChE [8] = molecular target: T1, recombinant human AChE; assay: biochemical; remark: listed apart in the source
[9] = potency (IC50), SH-SY5Y spheroids (24 h)
[10] = potency (IC50), SH-SY5Y spheroids (48 h)
[11] = potency (IC50), SH-SY5Y cells monolayer
[12] = potency (IC50), Neural stem cell spheroid (24 h)
[13] = potency (IC50), Neural stem cell spheroid (48 h)
[14] = potency (IC50), Enzyme with microsomes
[15] = read-out: potency (IC50), SH-SY5Y spheroids (48 h)
For IR or R in this document: key: Reversible (R); Irreversible (IR); ND, not detected in enzyme-based AChE inhibition assay from current study.

T1 sequence (P22303 32-614): as above
Chain of AChE in SH-SY5Y spheroids (P22303 32-614): as above

SMILES | IC50 [1, 9] [µM] | IC50 [1, 10] [µM] | IC50 (recombinant human AChE [2]) [µM] | CC-v2 (curve classes) (recombinant human AChE [3]) | IC50 (recombinant human AChE [3]; potency (IC50), Enzyme) [µM] | IR or R (recombinant human AChE [4]) | AC50 (recombinant human AChE [4]) | CC-v2 (curve classes) (AChE in SH-SY5Y cells) | IC50 (AChE in SH-SY5Y cells; [11]) [µM] | IC50 [5, 12] [µM] | IC50 [5, 13] [µM] | CC-v2 (curve classes) (recombinant human AChE [6]) | IC50 [7] [µM] | IC50 (recombinant human AChE [8]; [14]) [µM] | Efficacy (recombinant human AChE [3]) | IC50 (AChE in SH-SY5Y cells; IC50 (uM)) | Efficacy (recombinant human AChE [6]) | IC50 (recombinant human AChE [3]; IC50 (uM)) | other results
CNC(=O)Oc1cccc2c1OC(C)(C)O2 [Bendiocarb] | 44.7 ± 19.4 | 54.1 ± 7.44 | 0.92 ± 0.06 | -1.1 | 0.51 ± 0.03 | R | 70.3 µM (2×) and 78.9 µM and 88.5 µM (2×) and 55.9 µM and 62.7 µM | -1.1 | 1.07 ± 0.06 | 45.2 ± 10.3 | 47.1 | -1.1 | 46.2 ± 3.12 | 0.88 |  |  |  |  | 
CCOC(=O)CCN(SN(C)C(=O)Oc1cccc2c1OC(C)(C)C2)C(C)C [Benfuracarb] | 1.76 | 0.84 | 1.85 ± 0.24 | -1.1 | 4.97 |  | 0.885 µM and 0.703 µM and 0.789 µM and 1.25 µM and 0.993 µM and 0.627 µM and 0.444 µM and 0.314 µM and 0.498 µM | -1.1 | 1.25 | 12.1 | 12.6 | -1.1 | 7.67 | 1.4 | -95.401 | 0.252 µM and 0.356 µM and 0.0448 µM | -96.321 |  | 
O=c1[nH]c2ccc([S+]([O-])CCN3CCC(Cc4ccc(F)cc4)CC3)cc2o1 (centres unmarked) [Besonprodil, reference compound] | 4.75 ± 3.24 | 7.44 ± 1.68 | 16.4 ± 1.11 | -1.1 | 7.92 ± 0.91 | R | 14 µM (2×) and 9.93 µM (2×) and 15.7 µM (2×) and 7.03 µM | -1.1 | 8.57 ± 1.17 | 11.5 ± 3.7 |  | -2.1 | 15.8 ± 1.81 | 15.8 ± 1.81 | -92.894 | 6.33 µM | -73.433 |  | potency (IC50), Neural stem cell spheroid (48 h) [5]: Inactive
CNC(=O)Oc1cccc2c1OC(C)(C)C2 [Carbofuran] | 0.64 ± 0.97 | 0.27 ± 0.05 | 0.23 ± 0.03 | -1.1 | 0.09 |  | 993 nM (2×) and 1.11 µM (2×) and 885 nM and 125 nM and 314 nM and 157 nM | -1.1 | 0.29 ± 0.05 | 2.44 ± 0.61 | 4.82 ± 0.66 | -1.1 | 2.19 ± 0.61 | 0.22 ± 0.04 |  | 0.0894 µM and 0.725 µM and 0.647 µM and 0.1 µM and 0.458 µM |  |  | 
CCOP(=S)(OCC)SCSc1ccc(Cl)cc1 [Carbophenothion] | 28.1 | 19.6 |  | -2.2 |  |  | 19.3 µM and 17.2 µM and 21.7 µM |  |  | 2.19 | 3.31 | 4 | 2.96 | 3.74 | -28.575 | 89.4 µM | -18.784 | 89.4 µM | potency (IC50), Enzyme-based assay with heat-inactivated microsomes (recombinant human AChE [2]): Inactive; AChE inhibition (result in words) (recombinant human AChE [3]): did not show effects; potency (IC50), Enzyme (recombinant human AChE [3]): Inactive; potency (IC50), SH-SY5Y cells monolayer (AChE in SH-SY5Y cells): Inactive
CCCCN(CCCC)SN(C)C(=O)Oc1cccc2c1OC(C)(C)C2 [Carbosulfan] | 0.46 | 0.68 | 1.36 ± 0.19 | -1.1 | 1.67 | R | 993 nM (3×) and 1.11 µM and 885 nM | -1.1 | 3.23 | 5.25 | 8.89 | -1.1 | 10.9 | 0.44 |  | 0.159 µM and 0.809 µM and 0.126 µM and 1.14 µM and 0.224 µM and 0.573 µM |  |  | IC50 (recombinant human AChE [8]; IC50 (uM)): 3.56 µM and 0.573 µM
CCOP(=S)(OCC)OC(Cl)C(Cl)(Cl)Cl (centres unmarked) [Chlorethoxyfos] | 33.2 |  | 65.2 ± 4.42 | -2.1 | 60.4 |  | 1.57 µM | -2.1 | 28.3 | 42.8 | 47 | -1.1 | 46.2 | 5.86 | -89.198 | 35.6 µM | -100.975 | 79.6 µM | IC50 [1, 15]: 37.3 µM; IC50 (AChE in SH-SY5Y cells; read-out: IC50): 31.7 µM; IC50 (recombinant human AChE [8]; IC50 (uM)): 28.3 µM
CCOP(=S)(OCC)Oc1nc(Cl)c(Cl)cc1Cl [Chlorpyrifos, reference compound] | 41.7 | 36.7 | 95.7 ± 6.24 |  | 48 |  | 28 µM and 44.4 µM and 62.7 µM and 49.8 µM and 55.9 µM | -2.1 | 41.1 |  | 2.58 | -1.1 | 11.9 | 1.4 |  | 35.6 µM and 35.7 µM and 44.9 µM and 63.5 µM |  | 89.4 µM and 79.9 µM and 89.6 µM | IC50 (AChE in SH-SY5Y cells; read-out: IC50): 39.9 µM and 40 µM; IC50 ([5]; read-out: potency (IC50), Neural stem cell spheroid (24 h)): 1.21 µM
CCOP(=S)(OCC)SC(CCl)N1C(=O)c2ccccc2C1=O (centres unmarked) [Dialifor] | 25.7 | 15.7 | 28.1 ± 3.23 | -2.1 | 41.1 |  |  | -2.1 | 14.6 | 9.74 | 20.1 | -1.1 | 15.2 | 2.69 | -100.017 | 31.7 µM | -102.338 |  | reversibility of AChE inhibition (result in words) (recombinant human AChE [4]): irreversibility
CCOP(=O)(OCC)Oc1cc(C)nc(C(C)C)n1 [Diazoxon] | 2.3 ± 0.96 |  | 2.25 ± 0.26 | -1.1 | 1.12 ± 0.12 |  | 44.6 µM | -1.1 | 0.26 ± 0.03 | 0.22 | 0.39 ± 0.07 | -1.1 | 0.24 ± 0.04 | 3.69 ± 0.24 | -95.835 | 0.143 µM and 0.179 µM and 0.201 µM | -95.678 |  | IC50 [1, 15]: 0.5 µM
Cc1cc(OC(=O)N(C)C)nn1C(=O)N(C)C [Dimetilan] | 15.8 ± 16.9 | 7.03 | 11.6 ± 1.49 | -1.1 | 16 ± 3.66 | R | 49.8 µM (2×) and 31.4 µM and 19.8 µM (2×) and 55.9 µM and 12.5 µM and 5.59 µM and 14 µM | -1.1 | 6.89 ± 3.77 | 1.53 ± 0.26 | 3.12 ± 1.72 | -2.1 | 4.45 ± 0.51 | 9.97 ± 1.14 | -84.168 | 7.1 µM | -61.098 |  | 
CN1CCc2cc(Cl)c(O)cc2[C@H]2c3ccccc3CC[C@@H]21 [Ecopipam, reference compound] |  | 17.7 | 32.7 ± 9.64 | -2.2 | 20.1 | R | 21.7 µM (2×) and 9.68 µM and 19.3 µM and 15.3 µM (2×) and 17.2 µM | -2.2 | 15.8 |  | 3.16 | 4 | 17.5 | 27.3 | -53.005 | 27.5 µM and 34.7 µM | 0 | 34.7 µM | 
CCOP(=O)(Sc1ccccc1)Sc1ccccc1 [Edifenphos] | 4.79 ± 1.57 | 2.08 ± 0.37 | 3.03 ± 0.2 | -2.1 | 4.79 ± 0.31 |  | 28 µM and 62.7 µM and 31.4 µM (2×) and 25 µM and 49.8 µM and 35.2 µM | -1.1 | 1.73 ± 0.43 | 0.88 ± 0.1 | 1.21 ± 0.17 | -3 | 1.31 ± 0.23 | 7.31 ± 0.49 | -122.577 | 3.99 µM and 3.17 µM and 5.02 µM | -113.282 |  | 
CCOP(=S)(OCC)SCSP(=S)(OCC)OCC [Ethion] | 31.9 ± 21.6 | 42.8 ± 2.79 | 58.7 ± 10.6 | -2.1 | 7.92 ± 0.91 |  | 49.8 µM (3×) and 55.9 µM (3×) and 88.5 µM and 62.7 µM | -2.1 | 17 ± 1.1 | 0.09 ± 0.02 | 0.48 ± 0.46 | -1.1 | 7.03 ± 3.56 | 11.1 | -121.235 | 39.9 µM and 35.6 µM and 31.7 µM | -94.606 |  | 
CCN(C(=O)c1cc(C)cc(OC[C@H](C)Nc2ccncc2)c1)C(C)C.Cc1ccc(S(=O)(=O)O)cc1 [GW473178E methyl benzene sulfonic acid] | 9.63 | 24 | 19.7 ± 2.26 | -2.1 | 10.6 | R | 11 µM (2×) and 19.6 µM and 9.82 µM (3×) and 8.76 µM and 12.4 µM | -1.1 | 23.3 |  | 31.2 | -2.2 | 24.8 | 18.9 | -70.195 | 12.5 µM and 11.1 µM | -52.62 | 22.2 µM | potency (IC50), Neural stem cell spheroid (24 h) [5]: Inactive; IC50 (recombinant human AChE [8]; IC50 (uM)): 49.7 µM
Cc1c(Cl)c(=O)oc2cc(OP(=O)(OCCCl)OCCCl)ccc12 [Haloxon] | 0.88 ± 0.64 | 1.12 ± 0.13 | 1.35 ± 0.09 | -1.1 | 0.63 ± 0.11 |  | 1.4 µM and 1.57 µM (2×) and 1.11 µM (2×) and 1.25 µM and 885 nM and 993 nM | -1.1 | 1.51 ± 0.09 | 0.2 ± 0.17 | 0.18 ± 0.05 | -1.1 | 0.39 | 2.81 ± 0.32 | -92.736 | 3.89 µM and 4.36 µM and 3.09 µM | -94.886 |  | 
